Experiments:
[1] = test system: human primary hepatocytes; assay: Expansion of human primary hepatocytes on growth-arrested J2-3T3 feeder layer in 12-well plates (imaging, cell counting, FACS, biochemical assays); assay type: cell-based; settings: 20 μM on days 1 and 5, 7 days culture
Method: Culture media were collected and frozen at −20° C. until analysis. Albumin content was measured through sandwich ELISA assays (MP Biomedicals, Fitzgerald, Bethyl Laboratories) using horseradish peroxidase detection and 3,3′,5,5′-tetramethylbenzidine (TMB, Fitzgerald Industries) as a substrate. Urea concentration was determined colorimetrically using diacetylmonoxime with acid and heat (Stanbio Labs). To quantify CYP450 activity, at 48 hours after small molecule exposure, cultures were incubated with substrates (coumarin from Sigma for CYP2A6, luciferin-IPA from Promega for CYP3A4) for 4 hours at 37° C. Incubation medium was collected and metabolite concentration quantified via luminescence, or fluorescence after hydrolization of potential metabolite conjugates by β-glucuronidase/arylsulfatase (Roche, Ind.).
To characterize the effects of FPH1 and FPH2 outside of the screening platform, human primary hepatocytes were seeded at a density of ˜20,000 cells/cm^2, into standard 12-well tissue culture plates on top of a feeder layer of growth-arrested J2-3T3s. These cells were cultured for 7 days, during which time a single compound/FPH was supplemented into the media on days 1 and 5 at a concentration of 20 μM. Treated hepatocyte colonies increased in size over time, with more hepatocytes populating each colony (FIG. 2D, 2E).
To characterize the degree of proliferation and to obtain a doubling time, cells were counted and fluorescence-activated cell sorting (FACS) was performed (FIG. 2H). For cell counting, FPH-treated cells were trypsinized after seven days in culture. The number of cells was quantified using an automated cell counter. The number of hepatocytes was obtained by subtracting the number of fibroblasts from the total number of cells found in the corresponding co-culture. For FACS analysis, growth arrested J2-3T3s were labeled with CM-DiI prior to initiation of co-culture so that hepatocytes can be identified via negative selection. To enable cell counting during FACS, each sample was supplemented with fluorescent counting beads. […] Over 7 days, FPH1 induced hepatocyte doublings at a rate that is consistent with reported liver regeneration kinetics in vivo.
To assess the phenotype of the treated hepatocytes, imaging, biochemical analyses and gene expression profiling were performed. […] Albumin secretion and urea synthesis, a surrogate marker of nitrogen metabolism, were both stable throughout FPH treatment (FIG. 3A top and middle). Metabolic functions were assessed via examinations of cytochrome P450 (CYP450) activity and canalicular transport. […] Gene expression profiling confirmed that there are no significant differences between FPH-treated and untreated hepatocytes (FIG. 3C).

[2] = test system: primary human hepatocytes; assay: Expansion of primary human hepatocytes from six additional cell sources (Ki67/albumin staining, FACS); assay type: cell-based
Method: On day seven, the number of hepatocytes was quantified by FACS analysis (FIG. 6B). Day one untreated controls was added to the bar graph for reference.

[3] = target: ALK (Homo sapiens, UniProt Q9UM73); assay: Kinome analysis (panel of kinases); assay type: biochemical
Method: (§1) Selected compounds of the invention (FPH1 and FPH2; both at 1 μM concentration) were screened against a panel of kinases (FIG. 17).

[4] = target: CDK5 (Homo sapiens, UniProt Q00535); assay: Kinome analysis (panel of kinases); assay type: biochemical
Method: as §1

[5] = target: CK1 γ2 (Homo sapiens, UniProt P78368); assay: Kinome analysis (panel of kinases); assay type: biochemical
Method: as §1

[6] = target: CLK1 (Homo sapiens, UniProt P49759); assay: Kinome analysis (panel of kinases); assay type: biochemical
Method: as §1

[7] = target: CLK4 (Homo sapiens, UniProt Q9HAZ1); assay: Kinome analysis (panel of kinases); assay type: biochemical
Method: as §1

[8] = target: CaMK1 δ (Homo sapiens, UniProt Q8IU85); assay: Kinome analysis (panel of kinases); assay type: biochemical
Method: as §1

[9] = target: DAPK1 (Homo sapiens, UniProt P53355); assay: Kinome analysis (panel of kinases); assay type: biochemical
Method: as §1

[10] = target: EphB4 (Homo sapiens, UniProt P54760); assay: Kinome analysis (panel of kinases); assay type: biochemical
Method: as §1

[11] = target: FAK (Homo sapiens, UniProt Q05397); assay: Kinome analysis (panel of kinases); assay type: biochemical
Method: as §1

[12] = target: FMS (Homo sapiens, UniProt P07333); assay: Kinome analysis (panel of kinases); assay type: biochemical
Method: as §1

[13] = target: MAPKAPKV (PRAK) (Homo sapiens, UniProt Q8IW41); assay: Kinome analysis (panel of kinases); assay type: biochemical; settings: read-out: MAPKAPKV (PRAK) inhibition
Method: as §1

[14] = target: NEK2 (Homo sapiens, UniProt P51955); assay: Kinome analysis (panel of kinases); assay type: biochemical
Method: as §1

[15] = target: NEK9 (Homo sapiens, UniProt Q8TD19); assay: Kinome analysis (panel of kinases); assay type: biochemical
Method: as §1

[16] = target: PDGFRβ (Homo sapiens, UniProt P09619); assay: Kinome analysis (panel of kinases); assay type: biochemical
Method: as §1

[17] = target: PI3KC2 α (Homo sapiens, UniProt O00443); assay: Kinome analysis (panel of kinases); assay type: biochemical
Method: as §1

[18] = test system: PI3KCγ; assay: Kinome analysis (panel of kinases); assay type: biochemical; settings: 1 μM
Method: as §1

[19] = target: RSK2 (Homo sapiens, UniProt P51812); assay: Kinome analysis (panel of kinases); assay type: biochemical
Method: as §1

[20] = target: RSK3 (Homo sapiens, UniProt Q15349); assay: Kinome analysis (panel of kinases); assay type: biochemical
Method: as §1

[21] = target: RSK4 (Homo sapiens, UniProt Q9UK32); assay: Kinome analysis (panel of kinases); assay type: biochemical
Method: as §1

[22] = target: Ron (Homo sapiens, UniProt Q04912); assay: Kinome analysis (panel of kinases); assay type: biochemical
Method: as §1

[23] = target: eEF-2K (Homo sapiens, UniProt O00418); assay: Kinome analysis (panel of kinases); assay type: biochemical
Method: as §1

Chain of FMS (P07333 20-972, species assumed): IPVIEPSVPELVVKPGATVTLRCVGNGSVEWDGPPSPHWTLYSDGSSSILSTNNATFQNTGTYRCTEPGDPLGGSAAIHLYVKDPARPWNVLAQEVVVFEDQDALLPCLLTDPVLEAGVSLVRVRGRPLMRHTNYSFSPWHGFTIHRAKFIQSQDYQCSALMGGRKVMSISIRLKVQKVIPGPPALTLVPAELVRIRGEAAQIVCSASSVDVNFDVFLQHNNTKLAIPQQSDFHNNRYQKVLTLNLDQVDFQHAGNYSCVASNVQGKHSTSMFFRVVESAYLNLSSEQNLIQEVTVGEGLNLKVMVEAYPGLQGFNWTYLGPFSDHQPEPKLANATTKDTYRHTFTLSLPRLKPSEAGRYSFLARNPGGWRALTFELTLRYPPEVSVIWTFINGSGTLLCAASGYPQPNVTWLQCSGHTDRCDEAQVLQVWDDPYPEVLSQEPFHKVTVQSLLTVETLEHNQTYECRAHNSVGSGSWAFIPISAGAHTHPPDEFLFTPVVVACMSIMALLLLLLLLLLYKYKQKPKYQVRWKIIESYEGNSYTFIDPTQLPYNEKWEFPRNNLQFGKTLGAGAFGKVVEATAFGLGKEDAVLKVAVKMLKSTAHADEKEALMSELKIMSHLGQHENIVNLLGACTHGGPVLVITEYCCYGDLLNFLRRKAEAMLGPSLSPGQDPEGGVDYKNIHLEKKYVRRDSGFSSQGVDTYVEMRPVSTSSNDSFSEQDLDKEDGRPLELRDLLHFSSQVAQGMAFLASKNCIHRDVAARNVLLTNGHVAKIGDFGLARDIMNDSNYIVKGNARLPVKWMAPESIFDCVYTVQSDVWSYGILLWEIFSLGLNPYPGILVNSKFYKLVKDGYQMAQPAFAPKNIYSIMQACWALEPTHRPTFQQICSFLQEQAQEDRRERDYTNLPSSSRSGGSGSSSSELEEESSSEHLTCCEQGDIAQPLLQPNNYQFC
Chain of ALK (Q9UM73 19-1620, species assumed): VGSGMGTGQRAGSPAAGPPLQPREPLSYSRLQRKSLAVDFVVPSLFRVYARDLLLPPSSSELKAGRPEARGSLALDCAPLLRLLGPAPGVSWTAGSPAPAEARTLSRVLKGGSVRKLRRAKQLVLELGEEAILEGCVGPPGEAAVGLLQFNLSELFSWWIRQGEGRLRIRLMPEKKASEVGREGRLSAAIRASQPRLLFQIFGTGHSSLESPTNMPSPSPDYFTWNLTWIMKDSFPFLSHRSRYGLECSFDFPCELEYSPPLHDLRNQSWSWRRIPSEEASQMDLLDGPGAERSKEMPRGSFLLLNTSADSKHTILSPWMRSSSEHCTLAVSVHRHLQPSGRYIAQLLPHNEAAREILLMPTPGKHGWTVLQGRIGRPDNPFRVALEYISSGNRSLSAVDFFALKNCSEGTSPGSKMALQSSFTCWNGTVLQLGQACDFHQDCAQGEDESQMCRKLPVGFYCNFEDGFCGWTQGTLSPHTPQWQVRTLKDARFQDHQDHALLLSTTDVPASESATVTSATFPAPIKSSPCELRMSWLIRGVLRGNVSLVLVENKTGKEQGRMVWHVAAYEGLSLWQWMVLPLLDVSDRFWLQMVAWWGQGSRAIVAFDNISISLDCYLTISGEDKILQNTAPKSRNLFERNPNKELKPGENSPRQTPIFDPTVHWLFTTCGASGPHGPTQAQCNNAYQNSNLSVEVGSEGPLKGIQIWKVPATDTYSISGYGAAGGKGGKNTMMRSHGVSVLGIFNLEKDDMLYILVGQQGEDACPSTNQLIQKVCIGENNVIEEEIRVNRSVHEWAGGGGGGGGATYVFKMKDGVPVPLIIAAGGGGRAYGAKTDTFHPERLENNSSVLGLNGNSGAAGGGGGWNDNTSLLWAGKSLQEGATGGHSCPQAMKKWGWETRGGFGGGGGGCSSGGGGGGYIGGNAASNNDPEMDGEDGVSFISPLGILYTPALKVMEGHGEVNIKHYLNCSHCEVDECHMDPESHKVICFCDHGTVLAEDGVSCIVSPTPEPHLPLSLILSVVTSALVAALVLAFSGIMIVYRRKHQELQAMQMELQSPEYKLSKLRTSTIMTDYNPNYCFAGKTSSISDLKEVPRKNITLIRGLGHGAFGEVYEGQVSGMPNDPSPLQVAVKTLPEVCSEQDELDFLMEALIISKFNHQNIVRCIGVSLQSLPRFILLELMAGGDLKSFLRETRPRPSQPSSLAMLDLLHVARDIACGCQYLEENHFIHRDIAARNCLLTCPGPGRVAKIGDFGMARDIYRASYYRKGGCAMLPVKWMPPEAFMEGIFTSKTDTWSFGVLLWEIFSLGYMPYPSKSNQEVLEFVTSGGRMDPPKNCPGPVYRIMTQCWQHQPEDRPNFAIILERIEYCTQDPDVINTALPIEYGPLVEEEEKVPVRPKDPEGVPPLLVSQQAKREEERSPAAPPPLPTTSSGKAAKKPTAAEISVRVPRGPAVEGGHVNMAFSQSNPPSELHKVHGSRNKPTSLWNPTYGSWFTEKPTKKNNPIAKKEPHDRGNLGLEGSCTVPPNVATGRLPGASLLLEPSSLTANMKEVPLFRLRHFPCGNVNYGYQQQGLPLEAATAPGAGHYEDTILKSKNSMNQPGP
Chain of PDGFRβ (P09619 33-1106, species assumed): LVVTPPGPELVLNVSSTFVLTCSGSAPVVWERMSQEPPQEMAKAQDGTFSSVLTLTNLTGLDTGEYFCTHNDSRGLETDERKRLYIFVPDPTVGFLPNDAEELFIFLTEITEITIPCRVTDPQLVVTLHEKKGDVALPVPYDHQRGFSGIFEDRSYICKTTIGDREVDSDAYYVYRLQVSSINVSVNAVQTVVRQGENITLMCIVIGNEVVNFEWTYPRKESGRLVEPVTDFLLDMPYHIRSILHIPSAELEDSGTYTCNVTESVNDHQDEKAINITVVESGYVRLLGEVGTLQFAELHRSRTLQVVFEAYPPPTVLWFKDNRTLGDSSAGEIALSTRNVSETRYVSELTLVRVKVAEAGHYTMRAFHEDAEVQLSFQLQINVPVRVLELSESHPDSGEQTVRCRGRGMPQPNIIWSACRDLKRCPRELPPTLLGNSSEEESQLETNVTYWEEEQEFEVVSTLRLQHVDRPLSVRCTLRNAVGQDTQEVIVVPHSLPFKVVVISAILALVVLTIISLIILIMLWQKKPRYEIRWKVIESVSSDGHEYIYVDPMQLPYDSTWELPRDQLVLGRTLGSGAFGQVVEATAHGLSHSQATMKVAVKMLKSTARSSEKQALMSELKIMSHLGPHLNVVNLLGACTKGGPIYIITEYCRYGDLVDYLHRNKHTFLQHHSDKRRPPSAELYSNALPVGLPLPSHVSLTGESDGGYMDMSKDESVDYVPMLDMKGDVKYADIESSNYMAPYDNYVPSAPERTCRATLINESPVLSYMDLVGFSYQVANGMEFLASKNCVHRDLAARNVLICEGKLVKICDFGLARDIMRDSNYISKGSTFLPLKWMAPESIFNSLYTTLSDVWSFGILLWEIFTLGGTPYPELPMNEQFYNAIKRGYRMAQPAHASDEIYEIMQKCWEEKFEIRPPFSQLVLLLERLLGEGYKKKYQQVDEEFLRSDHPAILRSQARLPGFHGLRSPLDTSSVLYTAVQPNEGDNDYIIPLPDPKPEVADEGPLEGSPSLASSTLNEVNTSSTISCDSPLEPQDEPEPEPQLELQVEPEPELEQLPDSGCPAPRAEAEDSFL
Chain of RSK3 (Q15349 whole entry, species assumed): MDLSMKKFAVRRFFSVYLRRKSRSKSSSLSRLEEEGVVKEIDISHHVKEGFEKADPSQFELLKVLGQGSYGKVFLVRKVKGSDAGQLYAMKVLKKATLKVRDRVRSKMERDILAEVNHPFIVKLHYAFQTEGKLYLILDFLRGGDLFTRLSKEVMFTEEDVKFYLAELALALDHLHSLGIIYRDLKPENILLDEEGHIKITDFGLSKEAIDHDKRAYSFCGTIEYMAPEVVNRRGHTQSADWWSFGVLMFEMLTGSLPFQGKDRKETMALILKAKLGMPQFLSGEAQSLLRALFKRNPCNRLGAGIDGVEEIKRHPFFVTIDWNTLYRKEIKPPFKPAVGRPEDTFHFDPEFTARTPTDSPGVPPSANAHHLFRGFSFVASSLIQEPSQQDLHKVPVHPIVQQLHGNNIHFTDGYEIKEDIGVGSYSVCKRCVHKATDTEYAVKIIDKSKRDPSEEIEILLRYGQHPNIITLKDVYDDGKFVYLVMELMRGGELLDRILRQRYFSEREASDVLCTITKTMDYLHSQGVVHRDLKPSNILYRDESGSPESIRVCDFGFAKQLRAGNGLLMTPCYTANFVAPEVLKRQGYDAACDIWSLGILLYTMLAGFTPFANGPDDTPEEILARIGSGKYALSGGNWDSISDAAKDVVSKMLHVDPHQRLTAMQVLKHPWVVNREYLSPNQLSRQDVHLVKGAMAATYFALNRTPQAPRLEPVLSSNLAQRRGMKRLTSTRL
Chain of CDK5 (Q00535 whole entry, species assumed): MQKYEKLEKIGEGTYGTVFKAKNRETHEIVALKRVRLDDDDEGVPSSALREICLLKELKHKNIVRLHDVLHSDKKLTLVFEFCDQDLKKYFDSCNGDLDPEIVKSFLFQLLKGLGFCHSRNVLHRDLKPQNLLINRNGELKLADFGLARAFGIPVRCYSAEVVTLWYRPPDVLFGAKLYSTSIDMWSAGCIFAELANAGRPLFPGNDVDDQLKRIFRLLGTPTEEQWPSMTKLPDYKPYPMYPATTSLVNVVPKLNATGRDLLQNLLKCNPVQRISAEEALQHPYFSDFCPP
Chain of CDK5 (Q15078 whole entry partner, species assumed): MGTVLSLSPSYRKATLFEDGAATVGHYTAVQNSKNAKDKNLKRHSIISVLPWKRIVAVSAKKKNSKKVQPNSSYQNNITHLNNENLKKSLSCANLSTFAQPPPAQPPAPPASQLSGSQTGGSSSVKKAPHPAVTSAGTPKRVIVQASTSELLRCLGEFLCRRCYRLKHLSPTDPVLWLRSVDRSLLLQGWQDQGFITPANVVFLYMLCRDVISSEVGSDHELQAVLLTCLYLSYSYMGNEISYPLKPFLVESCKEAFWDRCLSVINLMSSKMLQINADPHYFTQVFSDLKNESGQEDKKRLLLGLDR

SMILES: Cc1ccc(Cl)cc1N(CC(=O)Nc1c(F)cccc1F)S(C)(=O)=O [FPH2, 2-(N-(5-chloro-2-methylphenyl)methylsulfonamido)-N-(2,6-difluorophenyl)acetamide]
- Ki67 staining / number of Ki67-positive nuclei [1]: more elevated
- increase in the area of albumin-positive colonies [1]: ≤ 3.5 fold
- number of hepatocytes by FACS ([2]; day seven, all donors): increase
- Ki67 staining co-localized with albumin labeled hepatocytes ([2]; six additional cell sources, six days in culture): increased
- inhibition at 1 µM [3]: 23%
- remaining activity at 1 µM [3]: 77%
- inhibition at 1 µM [4]: 6.7 to 18.4%
- inhibition at 1 µM [5]: 6.7 to 18.4%
- inhibition at 1 µM [6]: 6.7 to 18.4%
- inhibition at 1 µM [7]: 6.7 to 18.4%
- inhibition at 1 µM [8]: 6.7 to 18.4%
- inhibition at 1 µM [9]: 6.7 to 18.4%
- inhibition at 1 µM [10]: 18.4 to 30%
- inhibition at 1 µM [11]: 6.7 to 18.4%
- inhibition at 1 µM [12]: 28%
- remaining activity at 1 µM [12]: 72%
- inhibition at 1 µM [13]: 6.7 to 18.4%
- inhibition at 1 µM [14]: 6.7 to 18.4%
- inhibition at 1 µM [15]: 6.7 to 18.4%
- inhibition at 1 µM [16]: 6.7 to 18.4%
- inhibition at 1 µM [17]: 6.7 to 18.4%
- PI3KCγ inhibition [18]: 6.7-18.4%
- inhibition at 1 µM [19]: 6.7 to 18.4%
- inhibition at 1 µM [20]: 6.7 to 18.4%
- inhibition at 1 µM [21]: 6.7 to 18.4%
- inhibition at 1 µM [22]: 6.7 to 18.4%
- inhibition at 1 µM [23]: 6.7 to 18.4%

— patent US10081609B2, “Compounds for inducing proliferation and differentiation of cells, and methods of use thereof” (The Broad Institute, Inc., priority 2013, dated 2018)
